The record followed here is patent publication US8124633B2, “Hydroxymethyl ether hydroisoindoline tachykinin receptor antagonists” (Merck Sharp & Dohme Corp., priority 2007, dated 2012).

As usually defined, the IC50 is the midpoint of a concentration-inhibition curve. Read a high IC50 as a need for much substance. By inhibition is commonly meant the relative decrease from the control value, in per cent. Low readings indicate a weak effect, high ones a strong effect.

T1 sequence (P25103 whole entry): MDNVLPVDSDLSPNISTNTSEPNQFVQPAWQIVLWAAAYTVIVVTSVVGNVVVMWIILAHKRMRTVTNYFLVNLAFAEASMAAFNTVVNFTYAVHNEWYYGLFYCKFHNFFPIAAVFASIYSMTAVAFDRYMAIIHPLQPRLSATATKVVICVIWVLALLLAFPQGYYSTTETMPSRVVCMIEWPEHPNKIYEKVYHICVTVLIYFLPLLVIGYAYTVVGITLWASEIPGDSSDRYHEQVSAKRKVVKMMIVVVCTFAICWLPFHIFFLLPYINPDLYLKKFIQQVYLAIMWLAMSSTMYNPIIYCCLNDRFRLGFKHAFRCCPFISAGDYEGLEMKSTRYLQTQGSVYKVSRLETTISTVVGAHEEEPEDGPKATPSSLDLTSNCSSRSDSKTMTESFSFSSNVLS

The first experiment addresses T1, human neurokinin-1 receptor (NK1R) (Homo sapiens, UniProt P25103).
T1 construct: the cDNA for the human NK1R was cloned into the expression vector pCDM9; expressed in transfected cells
Kind of experiment: Binding assay of human NK1R expressed in COS or CHO cells (125I-substance P competition). As to conditions: 125I-substance P binding to human NK1R expressed in COS or CHO cells. Here is the method: Receptor Expression in COS: To express the cloned human neurokinin-1 receptor (NK1R) transiently in COS, the cDNA for the human NK1R was cloned into the expression vector pCDM9 which was derived from pCDM8 (INVITROGEN) by inserting the ampicillin resistance gene (nucleotide 1973 to 2964 from BLUESCRIPT SK+) into the Sac II site. Transfection of 20 ug of the plasmid DNA into 10 million COS cells was achieved by electroporation in 800 ul of transfection buffer (135 mM NaCl, 1.2 mM CaCl2, 1.2 mM MgCl2, 2.4 mM K2HPO4, 0.6 mM KH2PO4, 10 mM glucose, 10 mM HEPES pH 7.4) at 260 V and 950 uF using the IBI GENEZAPPER (1131, New Haven, Conn.). The cells were incubated in 10% fetal calf serum, 2 mM glutamine, 100 U/ml penicillin-streptomycin, and 90% DMEM media (GIBCO, Grand Island, N.Y.) in 5% CO2 at 37° C. for three days before the binding assay.
Stable Expression in CHO: To establish a stable cell line expressing the cloned human NK1R, the cDNA was subcloned into the vector pRcCMV (INVITROGEN). Transfection of 20 ug of the plasmid DNA into CHO cells was achieved by electroporation in 800 ul of transfection buffer supplemented with 0.625 mg/ml Herring sperm DNA at 300 V and 950 uF using the IBI GENEZAPPER (IBI). The transfected cells were incubated in CHO media [10% fetal calf serum, 100 U/ml penicillin-streptomycin, 2 mM glutamine, 1/500 hypoxanthine-thymidine (ATCC), 90% IMDM media (JRH BIOSCIENCES, Lenexa, Kans.), 0.7 mg/ml G418 (GIBCO)] in 5% CO2 at 37° C. until colonies were visible. Each colony was separated and propagated. The cell clone with the highest number of human NK1R was selected for subsequent applications such as drug screening.
Assay Protocol using COS or CHO: The binding assay of human NK1R expressed in either COS or CHO cells is based on the use of ^125I-substance P (^125I-SP, from DU PONT, Boston, Mass.) as a radioactively labeled ligand which competes with unlabeled substance P or any other ligand for binding to the human NK1R. Monolayer cell cultures of COS or CHO were dissociated by the non-enzymatic solution (SPECIALTY MEDIA, Lavallette, N.J.) and resuspended in appropriate volume of the binding buffer (50 mM Tris pH 7.5, 5 mM MnCl2, 150 mM NaCl, 0.04 mg/ml bacitracin, 0.004 mg/ml leupeptin, 0.2 mg/ml BSA, 0.01 mM phosphoramidon) such that 200 ul of the cell suspension would give rise to about 10,000 cpm of specific ^125I-SP binding (approximately 50,000 to 200,000 cells). In the binding assay, 200 ul of cells were added to a tube containing 20 ul of 1.5 to 2.5 nM of ^125I-SP and 20 ul of unlabeled substance P or any other test compound. The tubes were incubated at 4° C. or at room temperature for 1 hour with gentle shaking. The bound radioactivity was separated from unbound radioactivity by GF/C filter (BRANDEL, Gaithersburg, Md.) which was pre-wetted with 0.1% polyethylenimine. The filter was washed with 3 ml of wash buffer (50 mM Tris pH 7.5, 5 mM MnCl2, 150 mM NaCl) three times and its radioactivity was determined by gamma counter. The activation of phospholipase C by NK1R may also be measured in CHO cells expressing the human NK1R by determining the accumulation of inositol monophosphate which is a degradation product of IP3. CHO cells are seeded in 12-well plate at 250,000 cells per well. After incubating in CHO media for 4 days, cells are loaded with 0.025 uCi/ml of 3H-myoinositol by overnight incubation. The extracellular radioactivity is removed by washing with phosphate buffered saline. LiCl is added to the well at final concentration of […] with or without the test compound, and incubation is continued at 37° C. for […]. Substance P is added to the well at final concentration of 0.3 nM to activate the human NK1R. After 30 min of incubation at 37° C., the media is removed and 0.1 N HCl is added. Each well is sonicated at 4° C. and extracted with CHCl3/methanol (1:1). The aqueous phase is applied to a 1 ml Dowex AG 1×8 ion exchange column. […]
As to `Cc1ccccc1[C@H]1[C@@H]2CNC[C@H]2CC[C@@H]1O[C@H](CO)c1cc(C(F)(F)F)cc(C(F)(F)F)c1` [Example 2, (2S)-2-[3,5-bis(trifluoromethyl)phenyl]-2-{[(3aR,4R,5S,7aS)-4-(2-methylphenyl)octahydro-1H-isoindol-5-yl]oxy}ethanol], the concentration for half-maximal inhibition (IC50) came to 0.04 nM. Same read-out and setting: the value for `Cc1ccccc1[C@H]1[C@@H]2CN(C3=CC(=O)CC3)C[C@H]2CC[C@@H]1O[C@H](CO)c1cc(C(F)(F)F)cc(C(F)(F)F)c1` [Example 3, 3-[(3aR,4R,5S,7aS)-5-{(1S)-1-[3,5-bis(trifluoromethyl)phenyl]-2-hydroxyethoxy}-4-(2-methylphenyl)octahydro-2H-isoindol-2-yl]cyclopent-2-en-1-one] was 0.06 nM; that for `COC[C@@H](O[C@H]1CC[C@@H]2CN(C3=CC(=O)CC3)C[C@H]2[C@@H]1c1ccccc1C)c1cc(C(F)(F)F)cc(C(F)(F)F)c1` [Example 4, 3-[(3aR,4R,5S,7aS)-5-{(1S)-1-[3,5-bis(trifluoromethyl)phenyl]-2-methoxyethoxy}-4-(2-methylphenyl)octahydro-2H-isoindol-2-yl]cyclopent-2-en-1-one] was 0.1 nM; that for `Cc1ccccc1[C@H]1[C@@H]2CN(C3=NC(=O)CO3)C[C@H]2CC[C@@H]1O[C@H](CO)c1cc(C(F)(F)F)cc(C(F)(F)F)c1` [Example 5, 2-[(3aR,4R,5S,7aS)-5-{(1S)-1-[3,5-bis(trifluoromethyl)phenyl]-2-hydroxyethoxy}-4-(2-methylphenyl)octahydro-2H-isoindol-2-yl]-1,3-oxazol-4(5H)-one] was 0.06 nM. On the same count and under the same terms, the value for `Cc1ccccc1[C@H]1[C@@H]2CN(C(=O)N(C)C)C[C@H]2CC[C@@H]1O[C@H](CO)c1cc(C(F)(F)F)cc(C(F)(F)F)c1` [Example 6, (3aR,4R,5S,7aS)-5-{(1S)-1-[3,5-bis(trifluoromethyl)phenyl]-2-hydroxyethoxy}-N,N-dimethyl-4-(2-methylphenyl)octahydro-2H-isoindole-2-carboxamide] was 0.03 nM.

The compound `Cc1ccccc1[C@H]1[C@@H]2CN(C(=O)C(C)C)C[C@H]2CC[C@@H]1O[C@H](CO)c1cc(C(F)(F)F)cc(C(F)(F)F)c1` [Example 7, (2S)-2-[3,5-bis(trifluoromethyl)phenyl]-2-{[(3aR,4R,5S,7aS)-2-isobutyryl-4-(2-methylphenyl)octahydro-1H-isoindol-5-yl]oxy}ethanol] gave a 50% inhibitory concentration (IC50) of 0.08 nM. Same read-out and setting: then `O=C1COC(N2C[C@H]3CC[C@H](O[C@H](CO)c4cc(C(F)(F)F)cc(C(F)(F)F)c4)[C@@H](c4ccc(F)cc4)[C@@H]3C2)=N1` [Example 8], with 0.03 nM. The compound `O=C1C=C(N2C[C@H]3CC[C@H](O[C@H](CO)c4cc(C(F)(F)F)cc(C(F)(F)F)c4)[C@@H](c4ccc(F)cc4)[C@@H]3C2)CC1` [Example 9] returned a concentration for half-maximal inhibition (IC50) of 0.09 nM. The same measure, in the same setting: then `Cc1cc(F)ccc1[C@H]1[C@@H]2CN(C3=NC(=O)CO3)C[C@H]2CC[C@@H]1O[C@H](CO)c1cc(C(F)(F)F)cc(C(F)(F)F)c1` [Example 10], with 0.03 nM; and `Cc1cc(F)ccc1[C@H]1[C@@H]2CN(C3=CC(=O)CC3)C[C@H]2CC[C@@H]1O[C@H](CO)c1cc(C(F)(F)F)cc(C(F)(F)F)c1` [Example 11], with 0.03 nM; and `Cc1ccccc1[C@H]1[C@@H]2CN(C(=O)C(C)(C)C)C[C@H]2CC[C@@H]1O[C@H](CO)c1cc(C(F)(F)F)cc(C(F)(F)F)c1` [Example 12], with 0.07 nM. Compound `Cc1ccccc1[C@H]1[C@@H]2CN(C(=O)C3CC3)C[C@H]2CC[C@@H]1O[C@H](CO)c1cc(C(F)(F)F)cc(C(F)(F)F)c1` [Example 13] gave a half-maximal inhibitory concentration (IC50) of 0.06 nM.

Compound `COC[C@@H](O[C@H]1CC[C@@H]2CN(C(=O)N(C)C)C[C@H]2[C@@H]1c1ccccc1C)c1cc(C(F)(F)F)cc(C(F)(F)F)c1` [Example 14] came in with an IC50 of 0.46 nM.

`OC[C@@H](O[C@H]1CC[C@@H]2CNC[C@H]2[C@@H]1c1ccc(F)cc1)c1cc(C(F)(F)F)cc(C(F)(F)F)c1` [Example 16] returned an IC50 of 0.35 nM. The same measure, in the same setting: then `O=C1C=C(N2C[C@H]3CC[C@H](O[C@@H](CO)c4cc(C(F)(F)F)cc(C(F)(F)F)c4)[C@@H](c4ccc(F)cc4)[C@@H]3C2)CC1` [Example 21], with 55 nM; and `Cc1ccccc1[C@H]1[C@@H]2CNC[C@H]2CC[C@@H]1O[C@@H](CO)c1cc(C(F)(F)F)cc(C(F)(F)F)c1` [Example 22], with 2.2 nM. On the same count and under the same terms, the value for `Cc1ccccc1[C@H]1[C@@H]2CN(C(=O)C(C)(C)C)C[C@H]2CC[C@@H]1O[C@@H](CO)c1cc(C(F)(F)F)cc(C(F)(F)F)c1` [Example 24] was 45 nM.

The experiment is the same for the next values; noted with them: at 0.1 nM; 125I-substance P binding to human NK1R.
Compound `OC[C@H](O[C@H]1CC[C@@H]2CNC[C@H]2[C@@H]1c1ccc(F)cc1)c1cc(C(F)(F)F)cc(C(F)(F)F)c1` [Example 27] came in with an inhibition at 0.0001 µM of 47%.
